# From ChEMBL document CHEMBL3868622, “Development of 1-aryl-3-furanyl/thienyl-imidazopyridine templates for inhibitors against hypoxia inducible factor (HIF)-1 transcriptional activity” (Bioorg Med Chem Lett, 2016)
# Target: Hypoxia inducible factors; HIF-1-alpha, HIF-2-alpha (Homo sapiens, UniProt Q16665+Q99814)
# Experiment: Inhibition of hypoxia-induced HIF1 transcriptional activity in human HeLa cells measured after 12 hrs by luciferase reporter gene assay
# Format: cell-based
row,Structure (SMILES),IC50 [µM]
1,OCc1ccc(-c2nc(Cc3ccccc3)c3ccccn23)o1,56
2,OCc1ccc(-c2nc(-c3ccccc3CO)c3ccccn23)o1,6.5
3,OCc1ccc(-c2nc(-c3ccccc3CO)c3ccccn23)s1,9.4
4,OCc1ccc(-c2nc(-c3cc(C(F)(F)F)cc(C(F)(F)F)c3)c3ccccn23)o1,25
5,OCc1ccc(-c2nc(-c3ccc(C(F)(F)F)cc3)c3ccccn23)o1,17
6,COc1ccc(-c2nc(-c3ccc(CO)o3)n3ccccc23)cc1,61
7,N#Cc1ccc(-c2nc(-c3ccc(CO)o3)n3ccccc23)cc1,7.4
8,OCc1ccc(-c2nc(-c3ccccc3)c3ccccn23)s1,3.7
9,OCc1ccc(-c2nc(-c3ccncc3)c3ccccn23)s1,9.1
10,COc1ccccc1-c1nc(-c2ccc(CO)o2)n2ccccc12,75
11,Cc1ccc(-c2nc(-c3ccc(CO)o3)n3ccccc23)cc1,39
12,OCc1ccc(-c2nc(-c3ccccc3)c3ccccn23)o1,70
